Experimental data: patent US8206943B1, “Assay for PCSK9 inhibitors” (Schering Corporation, priority 2008, dated 2012)

How the values were obtained:
[1] = target: T1, PCSK9 (Homo sapiens, UniProt Q8NBP7); assay: HPLC / chromatographic analysis of PCSK9 autoproteolysis (cis-cleavage) in the presence of inhibitors; assay type: biochemical; design: Pro-Cat-Domain Polypeptide; initiator Met (N); made in house; host or cells: E. coli BL-21(DE3)
Experimental: Unprocessed PCSK9 (18 μM for NanoStream experiment, 8 μM for BioRad Experion experiment) was incubated at 25° C. in 25 mM Hepes pH 7.5, 150 mM NaCl, 10% glycerol and 1 mM EDTA (4% DMSO may be added to uninhibited control assays when run in conjunction with assays that include inhibitors dissolved in DMSO). At the designated time points (t=0 minutes, 60 minutes and 240 minutes), aliquots from the 18 μM incubation were quenched by adding guanidine hydrochloride to a concentration of 6M, then the quenched reaction was applied (1 μl) to NanoStream Brio #4207007 (300 Å, C4) chromatography cassette. Following gradient elution, from the cassette, using 0.1% TFA in water (solvent A) and 0.085% TFA in acetonitrile (solvent B), the peaks were quantitated by absorbance at 214 nm.
Furthermore, a chromatographic analysis of PCSK9 autoproteolysis was performed in the presence of various inhibitors. This assay was used to determine the effect of the inhibitors Tris (2-carboxyethyl) phosphine (TCEP; a reducing agent) and tosyl-L-lysine chloromethyl ketone (TLCK) on the PCSK9 autoproteolysis reaction. In these assay, the ProCat peak is uncleaved PCSK9 whereas the Pro- and Cat-peaks indicate generation of the Pro- and Cat-domains, which indicates autoproteolytic cleavage by PCSK9. FIG. 5(a) sets forth the data in the assay wherein the Tris (2-carboxyethyl) phosphine inhibitor was assayed. […] In the control-A experiment, Tris (2-carboxyethyl) phosphine was added at t=zero minutes of a 6 hour incubation. Tris (2-carboxyethyl) phosphine is a disulfide reducing agent that is not oxidized by air.
In the control-B experiment set forth in FIG. 5(a), Tris (2-carboxyethyl) phosphine was added at the end of a 6 hour incubation. The appearance of the Pro- and Cat-domains in the control B assay indicate the occurrence of autoproteolysis.
FIG. 5(b) sets forth data wherein inhibition mediated by TCEP (Tris (2-carboxyethyl) phosphine) and TLCK (tosyl-L-lysine chloromethyl ketone) are compared, side-by-side, in an autoproteolysis assay. […] The inhibitors are added at time zero. TCEP was added at 5 mM to quench the reaction; this sample serves as the 100% inhibited control—Control A in FIG. 5. TLCK was added at a concentration of 77 μM.
An HPLC analysis was performed on unprocessed PCSK9. A sample containing 12 uM unprocessed PCSK9 in 25 mM Hepes buffer pH 7.5, 150 mM NaCl, 1 mM EDTA, 10% glycerol and 4.0% DMSO was incubated at 25° C. […] One microliter of the reaction mixture was analyzed directly by reversed phase-HPLC using Express-LC100, a micro fluidic chromatographic system from Eksigent. […] The flow rate was 12 uI per minute and the sample components were detected at 214 nm. The amount of ProCat polypeptide was calculated as % of sum of peak areas corresponding to Pro-, Cat- and ProCat domains. […]
Target sequence in this assay (Q8NBP7 with tags, fused parts or gaps): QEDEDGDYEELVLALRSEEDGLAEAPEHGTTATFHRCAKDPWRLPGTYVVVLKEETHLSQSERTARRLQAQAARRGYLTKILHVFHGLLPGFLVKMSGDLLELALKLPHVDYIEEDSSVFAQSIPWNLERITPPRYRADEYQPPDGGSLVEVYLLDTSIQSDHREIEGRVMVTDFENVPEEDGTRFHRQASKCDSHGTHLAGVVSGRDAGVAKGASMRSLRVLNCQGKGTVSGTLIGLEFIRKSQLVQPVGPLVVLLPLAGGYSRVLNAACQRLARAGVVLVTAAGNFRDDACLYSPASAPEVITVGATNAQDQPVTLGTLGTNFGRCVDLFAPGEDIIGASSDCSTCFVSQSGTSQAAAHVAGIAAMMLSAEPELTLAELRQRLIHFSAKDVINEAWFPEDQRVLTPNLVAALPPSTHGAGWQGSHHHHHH

[2] = target: T1, PCSK9; assay: Cis-cleavage assay for PCSK9 using immuno-detection (ELISA of remaining FLAG-tag on HisSorb plate); assay type: biochemical; design: A DNA fragment corresponding to residues 31-454 of human PCSK9 (Pro-Cat domains) was made synthetically; made in house; host or cells: E. coli (pDest14 vector; expressed as for the first construct, BL-21(DE3)); details: 100 uM, 30° C. for 4 hours
Experimental: This example describes an assay to monitor the cis-cleavage of human PCSK9 using immuno-detection methods. A construct of human PCSK9 was created to have an N-terminal FLAG-tag and a (His)6-tag on the C-terminus. After incubation, the reaction was quenched and the domains were disassociated with 4.0 M urea. The protein was transferred to and bound, via the His-tag, to a HisSorb plate (Qiagen; Valencia, Calif.; nickel-nitrilotriacetic acid (Ni-NTA) coated plate). The amount of cleavage was determined by measuring the remaining FLAG-tag using standard ELISA techniques. Using this method, the sensitivity of the assay was increased at least 1000-fold over gel-based techniques and the micro-titer format makes the assay compatible with high throughput screening methods.
Cloning and expression. A DNA fragment corresponding to residues 31-454 of human PCSK9 (Pro-Cat domains) was made synthetically (GeneScript Corp., Piscataway, N.J.). Additional bases were included to add a Not1 restriction site and a Shine-Dalgarno initiation sequence to the 5′-end. A GS-(His)6 tag followed by a Asc1 restriction site was added to the 3′-end. A Gateway vector of PCSK9 was produced as FLAG-Pro-Cat(454)-GS-(His)6 by restriction digestion/ligation into the pDest14 expression vector. Expression and purification of the protein was done as previously described with aliquots frozen at −80° C. […]
Target sequence in this assay (Q8NBP7 31-454): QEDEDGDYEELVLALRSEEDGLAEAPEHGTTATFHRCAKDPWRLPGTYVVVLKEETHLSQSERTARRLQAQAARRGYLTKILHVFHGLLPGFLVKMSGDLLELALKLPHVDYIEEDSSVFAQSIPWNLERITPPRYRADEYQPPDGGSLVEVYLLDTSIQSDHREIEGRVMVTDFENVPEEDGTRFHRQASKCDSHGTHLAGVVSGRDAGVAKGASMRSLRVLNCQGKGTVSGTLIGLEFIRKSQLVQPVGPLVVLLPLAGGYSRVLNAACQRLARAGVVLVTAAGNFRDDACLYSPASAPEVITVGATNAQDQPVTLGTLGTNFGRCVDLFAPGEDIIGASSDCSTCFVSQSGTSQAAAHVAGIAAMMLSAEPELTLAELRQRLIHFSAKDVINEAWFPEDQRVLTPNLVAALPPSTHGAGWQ

[3] = 77 μM, added at time zero, FIG. 5(b)

Row | Molecule | inhibition of cis-cleavage reaction ([1]; 77 uM, 6 hour incubation at 25° C., 12 uM unprocessed PCSK9) | Pro- and Cat-domains in comparison to Control-A (TCEP) [1, 3] | ProCat peak (uncleaved PCSK9) in comparison to Control-A (TCEP) [1, 3] | inhibition of cis-cleavage (negative control) [2] [%] | inhibition of cis-cleavage activity ([1]; 5 mM, added at t=zero minutes of a 6 hour incubation (control-A), FIG. 5(a))
1 | tosyl-L-lysine chloromethyl ketone [TLCK] | significant inhibition | slight increase | small decrease | 100 | –
2 | O=C(O)CCP(CCC(=O)O)CCC(=O)O [TCEP, Tris (2-carboxyethyl) phosphine] | – | – | – | – | complete inhibition
